According to patent US20250002865A1, “METHOD FOR PRODUCING ORGANISM, AND METHOD FOR PROMOTING DIFFERENTIATION OF HUMAN ADIPOSE-DERIVED STEM CELLS INTO VASCULAR ENDOTHELIAL CELLS” (TOPPAN Holdings Inc., priority 2021, published 2025):
Several values for one entry are separate records, joined by “and”; a condition that tells them apart may be missing. Equal values may be shown once.

How the values were obtained:
[1] = system: cell balls of mature adipocytes and cells recovered from ADSC tissue construct
Method: Isolated ADSC was suspended in an EGM-2 medium, seeded in a 10-cm dish, and incubated at 37° C. The culture medium was changed every 2 days, and culture was carried out for 7 days to obtain a tissue construct. From this tissue construct, cells including ADSC, ADSC-derived vascular endothelial cells, and vascular endothelial progenitor cells were recovered.
The total number of cells of the tissue construct (cell ball) used was 4.0×10^4 cells/ball, and the mature adipocytes and the above-described recovered cells were used a ratio of 3:2.5 for the production.
The cell ball seeded in the low-adhesion 96-well plate was incubated in a 37° C. incubator for 15 minutes to carry out gelation, and 300 μL of EGM-2 or KBM was added thereto. […] In addition, EGM-2 or KBM, containing only insulin of a final concentration of 10 μg/mL and an ALK-5 inhibitor of 5 μM, was used as a control.
(§1) After 24 hours of culture, cells were transferred to a low-adhesion 24-well plate (IWAKI #4820-800LP), and 2 mL of the above EGM-2 or KBM was added thereto. The culture medium was changed every 2 to 3 days until the 7th day of culture.
The fluorescence imaging of the tissue construct was carried out as in Production Example 4, except that an anti-von Willebrand factor (vWF) antibody diluted 100-fold in a 1% BSA/PBS solution was used as a primary antibody solution and an Alexa Fluor 647-labeled anti-rabbit IgG antibody solution diluted 200-fold in 1% BSA/PBS solution was used as a secondary antibody solution. The vWF was used as a marker for vascular endothelial cells. In addition, for observation, the cell ball was placed directly on a complete plate of a Confocal Quantitative Image Cytometer CQ1 (Yokogawa Electric Corporation), and the stained tissue construct was observed using the Confocal Quantitative Image Cytometer CQ1 with laser excitation light at 640 nm.

[2] = system: cell balls of mature adipocytes and cells recovered from ADSC tissue construct; details: VEGF 50 ng/mL in EGM-2 with 10 μg/mL insulin and 5 μM ALK-5 inhibitor, 7 days
Method: Regarding the produced tissue construct, 5 μL (equivalent to one cell ball) of the mixture (equivalent to 40 cell balls) was seeded on each well of a low-adhesion 96-well plate (IWAKI #4860-800LP).
The cell ball seeded in the low-adhesion 96-well plate was incubated in a 37° C. incubator for 15 minutes to carry out gelation, and 300 μL of EGM-2 containing insulin of a final concentration of 10 μg/mL, an AKL-5 inhibitor of 5 μM, and VEGF of 50 ng/mL was added thereto.
as §1
The fluorescence imaging of the tissue construct was carried out as in Production Example 4, except that various primary antibody solutions and the corresponding secondary antibody solutions were used. […]
For observation, the cell ball was placed directly on a complete plate of a Confocal Quantitative Image Cytometer CQ1 (Yokogawa Electric Corporation), and the stained tissue construct was observed using the Confocal Quantitative Image Cytometer CQ1. […]

[3] = system: human adipose stem cell (ADSC); details: 5 μM in EGM-2, 7 days, compared with EGM-2 without ALK5 inhibitor
Method: The culture medium was changed every 2 days, and culture was carried out for 7 days after seeding to obtain a tissue construct.
Fluorescence imaging of the tissue construct was carried out according to the following procedure. A transwell containing the obtained tissue construct was transferred to a 24-well plate. After washing with 2 mL of PBS, the tissue was fixed overnight under the condition of 4° C. using 2 mL of 4% PFA. Washing was carried out three times using 2 mL of PBS. Cells were subjected to permeabilization treatment for 7 minutes under room temperature conditions by using 0.05% Triton/PBS (500 μL in the transwell and 500 μL outside the transwell), and washing was carried out three times using 2 mL of PBS.
The tissue was subjected to blocking treatment for 1 hour under room temperature conditions by using a 1% BSA/PBS solution (500 μL in the transwell and 500 μL outside the transwell). The BSA solution was aspirated, and 100 μL of a primary antibody solution (an anti-CD31 antibody diluted 100-fold in a 1% BSA/PBS solution) was added (50 μL in the transwell and 50 μL outside the transwell). A wet tissue paper was placed under the plate, and the plate was covered with an aluminum foil and incubated overnight under the condition of 4° C. […]

[4] = system: human adipose stem cell (ADSC); details: 5 μM in EGM-2 for 7 days, then 24 hours on Matrigel; compared with EGM-2 without ALK5 inhibitor
Method: The culture medium was changed every 2 days, culture was carried out for 7 days. Thereafter, the ADSC was separated from the dish using trypsin/EDTA and suspended in 1 mL of DMEM, and the number of cells was counted. Further, the recovered ADSC was seeded on a 24-well plate previously coated with Matrigel at concentrations of 1.0×10^5 cells/dish, 1.5×10^5 cells/dish, and 2.0×10^5 cells/dish, and incubated at 37° C. for 24 hours. Thereafter, the morphology of the tissue construct was evaluated with a phase contrast microscope.

[5] = system: human adipose stem cell (ADSC); details: 5 μM in EGM-2, 7 days
Method: The culture medium was changed every 2 days, and culture was carried out for 7 days to obtain a tissue construct. Thereafter, the ADSC was gently detached while leaving cell surface proteins, by incubation for 5 minutes using 0.25% Trypsin, recovered from the dish, and suspended in 1 mL of DMEM, and the number of cells was counted.
The ratio of vascular endothelial cells in the tissue construct was analyzed by the flow cytometry analysis using BD Facsmelody (registered trademark) cell sorter (Becton, Dickinson and Company). The tissue construct recovered as described above was centrifuged (100 g, 5 minutes, 4° C.). […] Thereafter, cells were centrifuged (100 g, 5 minutes, 4° C.) to wash the cells, and the pelleted cells were suspended in a buffer, and 10,000 events were recorded. Further, an isotype control for the conjugated antibody was measured simultaneously. […]
The ratio of vascular endothelial cells in the sample was analyzed by the flow cytometry analysis using BD Facsmelody (registered trademark) cell sorter (Becton, Dickinson and Company). […] Thereafter, cells were centrifuged (100 g, 5 minutes, 4° C.) to wash the cells, and the pelleted cells were suspended in a buffer, and 10,000 events were recorded. Further, an isotype control for the conjugated antibody was measured simultaneously. […]

Compound	vascular network, number of branches of blood vessels, vs control without VEGF ([1]; VEGF 0.5, 20, 50 or 100 ng/mL in EGM-2 or KBM with 10 μg/mL insulin and 5 μM ALK-5 inhibitor, 7 days)	vascular network, number of branches of blood vessels, vs culture medium containing leptin ([1]; VEGF-containing medium vs leptin 1 μg/mL, both with insulin and 5 μM ALK-5 inhibitor, 7 days)	vascular network, amount of blood vessels among VEGF concentrations ([1]; culture medium containing more than 20 ng/mL of VEGF)	proportion of vWF-positive vs CD34-positive cells among total CD31-positive cells [2]	vascular network formation in cell ball [2]	vascular network formation by CD31 staining [3]	lumen formation / vascular network on Matrigel [4]	ratio of vascular endothelial cells (CD31+) based on number of total cells recovered [5]
VEGF	the number of branches of blood vessels is large as compared with the control cell ball	the number of branches of blood vessels is large as compared with the cell ball cultured in a culture medium containing leptin	a vascular network having still more blood vessels was formed	the proportion of vWF-positive cells with respect to the total CD31-positive cells was higher than the proportion of CD34-positive cells	a vascular network was also formed			
Cc1cccc(-c2n[nH]cc2-c2ccc3ncccc3n2)n1 [ALK5 inhibitor, 2-[3-(6-methyl-2-pyridinyl)-1H-pyrazol-4-yl]-1,5-naphthyridine]						a vascular network in which the number of branches is larger is formed	lumen formation is further progressed	29.29% and 32.4%
